Results reported in ChEMBL document CHEMBL1201862, “PubChem BioAssay data set” (2004).
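Briefly, cells in 96-well plates were exposed to five compound concentrations for 48 h, and endpoints were estimated by linear interpolation. At the GI50, growth is halved.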 The source made the active and inactive calls. Cut-off read from the data, not from the text of the source: active = GI50 up to about 1.1 µM and inactive = higher.

Experiments:
Assay in all cases: DTP human tumour cell line panel, 48 h
EKVX = tested on: EKVX
HCC 2998 = tested on: HCC 2998
NCI-H23 = tested on: NCI-H23
IGROV-1 = tested on: IGROV-1
HCT-116 = tested on: HCT-116
SW-620 = tested on: SW-620
SF-295 = tested on: SF-295
CCRF-CEM = tested on: CCRF-CEM
NCI-H460 = tested on: NCI-H460
SF-268 = tested on: SF-268
HCT-15 = tested on: HCT-15
HOP-62 = tested on: HOP-62
UACC-62 = tested on: UACC-62
K562 = tested on: K562
UO-31 = tested on: UO-31
SN12C = tested on: SN12C
TK-10 = tested on: TK-10

Which results are given for C(/C=C/N1CCCC1)=C\c1nc(N2CCCC2)c2ccccc2n1?
GI50 (EKVX): 20.1 µM (inactive); GI50 (HCC 2998): 17.4 µM (inactive); GI50 (NCI-H23): 18.2 µM (inactive); GI50 (IGROV-1): 21.6 µM (inactive); GI50 (HCT-116): 19.7 µM (inactive); GI50 (SW-620): 14.3 µM (inactive); GI50 (SF-295): 20.4 µM (inactive); GI50 (CCRF-CEM): 13.2 µM (inactive); GI50 (NCI-H460): 18.2 µM (inactive); GI50 (SF-268): 23.9 µM (inactive); GI50 (HCT-15): 16.4 µM; GI50 (HOP-62): 19.5 µM (inactive); GI50 (UACC-62): 21.2 µM (inactive); GI50 (K562): 12.5 µM (inactive); GI50 (UO-31): 15.7 µM (inactive); GI50 (SN12C): 13.5 µM (inactive); GI50 (TK-10): 41 µM (inactive)

Which results are given for COc1ccc2c(c1)CC1c3c(cc4c(c3-2)OCO4)CCN1C (stereo not drawn)?
GI50 (EKVX): 33.4 µM (inactive); GI50 (HCC 2998): 41.1 µM (inactive); GI50 (NCI-H23): 23.8 µM (inactive); GI50 (IGROV-1): 31.7 µM (inactive); GI50 (HCT-116): 19.5 µM (inactive); GI50 (SW-620): 19.5 µM (inactive); GI50 (SF-295): 21.6 µM (inactive); GI50 (CCRF-CEM): 23 µM (inactive); GI50 (NCI-H460): 24.3 µM (inactive); GI50 (SF-268): > 10 µM (inactive); GI50 (HCT-15): 36.9 µM; GI50 (HOP-62): 30.1 µM (inactive); GI50 (UACC-62): 21.6 µM (inactive); GI50 (K562): 23.3 µM (inactive); GI50 (UO-31): 14 µM (inactive); GI50 (SN12C): 33.3 µM (inactive); GI50 (TK-10): 21.1 µM (inactive)

Which results are given for COC(=O)/C(C#N)=C1\NN=NN1CCCN1CCOCC1?
GI50 (EKVX): > 100 µM (inactive); GI50 (HCC 2998): > 100 µM (inactive); GI50 (NCI-H23): > 100 µM (inactive); GI50 (IGROV-1): > 100 µM (inactive); GI50 (HCT-116): > 100 µM (inactive); GI50 (SW-620): > 100 µM (inactive); GI50 (SF-295): > 100 µM (inactive); GI50 (CCRF-CEM): > 100 µM (inactive); GI50 (NCI-H460): > 100 µM (inactive); GI50 (HCT-15): > 100 µM; GI50 (UACC-62): > 100 µM (inactive); GI50 (K562): > 100 µM (inactive); GI50 (UO-31): > 100 µM (inactive); GI50 (SN12C): > 100 µM (inactive); GI50 (TK-10): > 100 µM (inactive)

With C/C=C/C=N/N(c1nnc(-c2ccccc2)c(-c2ccccc2)n1)S(=O)(=O)c1ccc(C)cc1 as the compound, how does the GI50 (EKVX) read?
The GI50 was 17.8 µM (inactive).

And the GI50 (HCC 2998)?
Its GI50 is 17 µM (inactive).

What about the GI50 (NCI-H23) of the same compound?
The GI50 was 14 µM (inactive).

What about the GI50 (IGROV-1) of the same compound?
Its GI50 is 13.1 µM (inactive).

And the GI50 (HCT-116)?
The GI50 was 8.09 µM (inactive).

And the GI50 (SW-620)?
Its GI50 is 4.05 µM (inactive).

And the GI50 (SF-295)?
The GI50 was 11 µM (inactive).

What about the GI50 (CCRF-CEM) of the same compound?
Its GI50 is 2.49 µM (inactive).

What about the GI50 (NCI-H460) of the same compound?
Its GI50 is 11.1 µM (inactive).

What about the GI50 (SF-268) of the same compound?
Its GI50 is 5.46 µM (inactive).

And the GI50 (HCT-15)?
The GI50 was 5.14 µM.

What about the GI50 (UACC-62) of the same compound?
The GI50 was 3.33 µM (inactive).

What about the GI50 (K562) of the same compound?
The GI50 was 6.37 µM (inactive).

And the GI50 (UO-31)?
Its GI50 is 5.74 µM (inactive).

What about the GI50 (SN12C) of the same compound?
Its GI50 is 8.13 µM (inactive).

What about the GI50 (TK-10) of the same compound?
The GI50 was 14.9 µM (inactive).

Which GI50 (EKVX) does the source give for Oc1nc(S)nc2c1CCCN2 here?
The GI50 was > 100 µM (inactive).

What about the GI50 (NCI-H23) of the same compound?
Its GI50 is > 100 µM (inactive).

And the GI50 (IGROV-1)?
Its GI50 is > 100 µM (inactive).

What about the GI50 (HCT-116) of the same compound?
The GI50 was > 100 µM (inactive).

What about the GI50 (SW-620) of the same compound?
Its GI50 is > 100 µM (inactive).

What about the GI50 (SF-295) of the same compound?
Its GI50 is > 100 µM (inactive).

And the GI50 (CCRF-CEM)?
Its GI50 is > 100 µM (inactive).

What about the GI50 (SF-268) of the same compound?
Its GI50 is > 100 µM (inactive).

And the GI50 (HCT-15)?
Its GI50 is greater than 100 µM.

And the GI50 (HOP-62)?
Its GI50 is > 100 µM (inactive).

What about the GI50 (UACC-62) of the same compound?
Its GI50 is > 100 µM (inactive).

And the GI50 (K562)?
The GI50 was > 10 µM (inactive).

What about the GI50 (UO-31) of the same compound?
The GI50 was > 100 µM (inactive).

What about the GI50 (SN12C) of the same compound?
Its GI50 is > 100 µM (inactive).

What about the GI50 (TK-10) of the same compound?
The GI50 was > 100 µM (inactive).

With C1OCC2S[C@@H]3COCO[C@@H]3C2O1 (stereo partly drawn) as the compound, how does the GI50 (EKVX) read?
Its GI50 is > 100 µM (inactive).

What about the GI50 (HCC 2998) of the same compound?
The GI50 was > 100 µM (inactive).

And the GI50 (NCI-H23)?
Its GI50 is > 100 µM (inactive).

What about the GI50 (HCT-116) of the same compound?
The GI50 was > 100 µM (inactive).

And the GI50 (SF-295)?
The GI50 was > 100 µM (inactive).

And the GI50 (CCRF-CEM)?
Its GI50 is > 100 µM (inactive).

What about the GI50 (NCI-H460) of the same compound?
The GI50 was > 100 µM (inactive).

What about the GI50 (SF-268) of the same compound?
Its GI50 is > 100 µM (inactive).

And the GI50 (HCT-15)?
Its GI50 is greater than 100 µM.

And the GI50 (HOP-62)?
Its GI50 is > 100 µM (inactive).

And the GI50 (UACC-62)?
The GI50 was > 100 µM (inactive).

What about the GI50 (K562) of the same compound?
Its GI50 is > 100 µM (inactive).

And the GI50 (UO-31)?
Its GI50 is > 100 µM (inactive).

And the GI50 (SN12C)?
The GI50 was > 100 µM (inactive).

What about the GI50 (TK-10) of the same compound?
Its GI50 is > 100 µM (inactive).

How did the GI50 (EKVX) turn out when O=C(/C=C/c1ccccc1O)c1cccnc1 was run?
The GI50 was > 100 µM (inactive).

What about the GI50 (HCC 2998) of the same compound?
The GI50 was > 100 µM (inactive).

And the GI50 (NCI-H23)?
Its GI50 is 51.3 µM (inactive).

What about the GI50 (IGROV-1) of the same compound?
The GI50 was > 100 µM (inactive).

What about the GI50 (HCT-116) of the same compound?
Its GI50 is > 100 µM (inactive).

And the GI50 (SW-620)?
Its GI50 is > 100 µM (inactive).

And the GI50 (SF-295)?
Its GI50 is > 100 µM (inactive).

And the GI50 (CCRF-CEM)?
Its GI50 is > 100 µM (inactive).

What about the GI50 (NCI-H460) of the same compound?
The GI50 was > 100 µM (inactive).

What about the GI50 (SF-268) of the same compound?
The GI50 was > 100 µM (inactive).

And the GI50 (HOP-62)?
The GI50 was > 100 µM (inactive).

What about the GI50 (UACC-62) of the same compound?
Its GI50 is > 100 µM (inactive).

And the GI50 (K562)?
Its GI50 is > 100 µM (inactive).

What about the GI50 (UO-31) of the same compound?
The GI50 was > 100 µM (inactive).

And the GI50 (SN12C)?
Its GI50 is > 100 µM (inactive).

What about the GI50 (TK-10) of the same compound?
The GI50 was > 100 µM (inactive).

How did the GI50 (EKVX) turn out when Cc1cc(NS(=O)(=O)c2ccc(NC(=O)c3ccc(Cl)c4c(Nc5ccc(S(=O)(=O)Nc6cc(C)on6)cc5)c5ccccc5nc34)cc2)no1 was run?
Its GI50 is 39 µM (inactive).

And the GI50 (NCI-H23)?
Its GI50 is > 10 µM (inactive).

And the GI50 (IGROV-1)?
Its GI50 is 21.5 µM (inactive).

And the GI50 (HCT-116)?
Its GI50 is 14.2 µM (inactive).

And the GI50 (SW-620)?
Its GI50 is 28.1 µM (inactive).

What about the GI50 (SF-295) of the same compound?
The GI50 was 23.8 µM (inactive).

And the GI50 (CCRF-CEM)?
The GI50 was 18.8 µM (inactive).

What about the GI50 (NCI-H460) of the same compound?
The GI50 was 21 µM (inactive).

What about the GI50 (SF-268) of the same compound?
The GI50 was 13.8 µM (inactive).

And the GI50 (HCT-15)?
The GI50 was 18.7 µM.

And the GI50 (HOP-62)?
The GI50 was 23.3 µM (inactive).

What about the GI50 (UACC-62) of the same compound?
The GI50 was 14.4 µM (inactive).

What about the GI50 (K562) of the same compound?
The GI50 was 23.2 µM (inactive).

What about the GI50 (UO-31) of the same compound?
The GI50 was 15.9 µM (inactive).

What about the GI50 (SN12C) of the same compound?
The GI50 was 18.6 µM (inactive).

What about the GI50 (TK-10) of the same compound?
Its GI50 is 31.3 µM (inactive).

For CN(/N=C/c1ccnc2ccccc12)c1ccc([N+](=O)[O-])cc1[N+](=O)[O-], which GI50 (EKVX) is on record?
The GI50 was > 100 µM (inactive).

What about the GI50 (HCC 2998) of the same compound?
The GI50 was > 100 µM (inactive).

And the GI50 (NCI-H23)?
The GI50 was 91.6 µM (inactive).

What about the GI50 (IGROV-1) of the same compound?
Its GI50 is > 100 µM (inactive).

And the GI50 (SW-620)?
Its GI50 is > 100 µM (inactive).

What about the GI50 (SF-295) of the same compound?
The GI50 was 37.3 µM (inactive).

And the GI50 (CCRF-CEM)?
Its GI50 is > 100 µM (inactive).

What about the GI50 (NCI-H460) of the same compound?
The GI50 was > 100 µM (inactive).

What about the GI50 (SF-268) of the same compound?
The GI50 was > 100 µM (inactive).

And the GI50 (HCT-15)?
The GI50 was greater than 100 µM.

And the GI50 (HOP-62)?
The GI50 was 30.3 µM (inactive).

And the GI50 (UACC-62)?
Its GI50 is > 100 µM (inactive).

What about the GI50 (K562) of the same compound?
The GI50 was > 100 µM (inactive).

What about the GI50 (UO-31) of the same compound?
Its GI50 is > 100 µM (inactive).

What about the GI50 (SN12C) of the same compound?
The GI50 was > 100 µM (inactive).

What about the GI50 (TK-10) of the same compound?
Its GI50 is > 100 µM (inactive).
